According to patent US8846308B2, “Method for identifying immune response modulators” (The Trustees of the University of Pennsylvania, priority 2007, dated 2014):

System: FOXP3
Test: Acetylation of chromatin-bound FOXP3 in HA-FOXP3a/3b transfected Jurkat T cells (immunoblot)
Assay type: cell-based, human
Details: 1 ng TGF-β per million cells; serum-starved Jurkat T cells; between 2 and 4 hours after exposure; anti-acetyl lys immunoblot; FIG. 10B
Protocol: FIG. 10B is an image of an immunoblot of untreated and TGF-β treated, human HA-FOXP3a/3b transfected Jurkat T cells. The transfected cells were stimulated with or without 1 ng TGF-β per million cells for indicated time periods. Equal amounts of proteins from chromatin rich fractions were separated by SDS-PAGE, transferred to nitrocellulose, and immunoblotted with anti-acetyl lys specific antibody (Ac-K-103, Santa Cruz) followed by reprobing with anti-HA-HRP conjugated antibody. Acetylated FOXP3a and FOXP3b proteins are marked.
The effect of TGF-β on the acetylation of FOXP3 was examined. Serum-starved human HA-FOXP3a/3b transfected Jurkat T cells were stimulated with or without 1 ng TGF-β per million cells for indicated time periods. Equal amounts of proteins from chromatin rich fractions were separated by SDS-PAGE, transferred to nitrocellulose, and immunoblotted with anti-acetyl lys specific antibody (Ac-K-103, Santa Cruz) followed by reprobing with anti-HA-HRP conjugated antibody (FIG. 9B).

## Transforming Growth Factor-β [TGF-β]
  chromatin-bound acetylated FOXP3: High levels of chromatin-bound acetylated FOXP3
